Source: patent US11737991B2, “Eutectic formulations of cyclobenzaprine hydrochloride and amitriptyline hydrochloride” (TONIX PHARMA HOLDINGS LIMITED, priority 2013, dated 2023)
“Also recorded” adds a separate entry of the source. Structures can show the parent of a compound that is named as a salt. Blank lines part the entries; values can stand above or below the molecule they belong to.

Columns and labels:
Assay type in all cases: physicochemical
[1] = DSC compatibility of excipients with Cyclobenzaprine HCl (Example 1); conditions: for Excipient reactions with API, Mixture 1:1: 1:1 API:excipient, ground in agate mortar
Protocol: Thermal analytical techniques were used to assess the compatibility of a drug product (tablet) containing Cyclobenzaprine HCl (API). The compatibility assessment was carried out between the API and a number of possible excipients in a 1:1 ratio. Based on the thermal events recorded for each component and for the mixtures, the analyses were carried out by investigating the peaks recorded by differential scanning calorimetry (DSC) in mixture between API and the excipients. Differences in thermal profiles between the single compound and the related mixture obtained after milling the products in an agate mortar were evaluated. Stability and compatibility also were also assessed on the final drug product after stress conditions at 40° C. and 50° C. for one month.
A “formulation ratio” mixture was made with the following composition: 2.40 mg Cyclobenzaprine HCl, 31.55 mg Mannitol and Maize starch, 2.00 Crospovidone, 0.50 mg colloidal silica, 0.050 mg Sodium Stearyl Fumarate, and 1.05 Potassium hydrogen phosphate.
Aliquots of API and each excipient were weighed in a ratio of 1:1 (unless specified otherwise) and ground in an agate mortar. The homogeneous mixtures then were analyzed.
The DSC heating curves were obtained with a TA 821 DSC Mettler instrument under the following conditions:
(§1) Ambient: Nitrogen 30 mL/min
(§2) Sample holder: normal open aluminum pan
(§3) Temperature range: from 25° C. to 250° C.
(§4) Instrument calibration: Indium sample purity 99.999%

[2] = DSC, FT-IR/ATR and XRPD compatibility of excipients with Cyclobenzaprine HCl, mixed (A) and milled (B) 1:1 mixtures (Example 2); conditions: for Type of interaction between excipient and API (summary): 1:1 mixtures, mixed and milled
Protocol: As described above, thermal analytical techniques were further used to assess the compatibility of a drug product (tablet) containing Cyclobenzaprine HCl (API). The compatibility assessment was carried out between the API and additional excipients in a 1:1 ratio. The 1:1 APT-excipient mixtures were formed in two different ways: first, by mixing only, and second, by strong milling in an agate mortar. The thermal behavior recorded in the two different mixtures were compared with those of the single components. On the basis of thermal events recorded for each component and for the mixtures, the analyses were carried out by investigating the meanings of the peaks recorded by differential scanning calorimetry (DSC) in mixtures between the API and the excipients. Furthermore, in order to define the nature of the interaction, the Fourier Transform Infra Red Spectroscopy with Total Attenuated Reflectance (FT-IR/ATR) and X-ray powder diffraction (XRPD) of some samples (API, excipient, and mixed and milled mixtures) was carried out and compared.
Aliquots of API and each excipient were weighed in a ratio of 1:1 and ground in an agate mortar. Then, the homogeneous mixtures were analyzed. These sample mixtures were labeled “B”, while the mechanical-only mixtures were labeled “A.”
The DSC heating curves were obtained by TA 821 DSC Mettler instrument under the following conditions:
as §1, §2, §3, §4
The FT-IR spectra were collected with a Perkin Elmer spectrum Two instrument with air as background and 4 cm-1 resolution.
X-ray powder diffraction (XRPD) tests were performed with the ULTIMA IV instrument (Rigaku), laying the sample on a static sample holder. The X-ray focusing slit has a variable width, interlocked with the q value. The X-ray tube has a Copper target, with a current intensity of 40 mA and a voltage of 40 kV. Radiation was generated by the Cockcroft-Walton method, and was constituted by Kα1 (1.540562 Å) and Kα2 (1.544398 Å). The analytical conditions were:
Fixed Time; sampling width 0.02 deg, scanning rate 1.3 s/step, 2 q range 3.35 deg and sample holder; amorphous glass equiangular 9200/2G, 0.2 mm deep. The sample was pressed with a glass plate.

[3] = DSC compatibility of excipients with Amitriptyline HCl (Example 4); conditions: Amitriptyline HCl:excipient 1:1, milled in agate mortar
Protocol: Thermal analytical techniques were used to assess the compatibility of the drug product Amitriptyline HCl. The compatibility assessment was carried out between the API and the excipients in a 1:1 ratio. On the basis of thermal events recorded for each component and for the mixtures, the analyses were carried out by investigating the peaks recorded by DSC in mixtures between API and the excipients. Differences in thermal profiles between the single compound and the related mixtures were obtained after milling the products in an agate mortar.

[4] = XRPD of binary Cyclobenzaprine HCl-mannitol mixtures (Example 3); conditions: binary mixtures 30-90% API, no thermal treatment
Protocol: In order to confirm the eutectic formation and to characterize its physical properties, several binary mixtures at different ratios of API-excipient were prepared and analyzed by DSC and by X-ray powder diffraction (XRPD). The mixtures were obtained by gently milling in agate mortar of micronized Cyclobenzaprine HCl and mannitol, in order to obtain homogeneous distribution of the particles. For each DSC heating curve, the onset temperature and the enthalpy were evaluated both for the eutectic contribute and for the excess of component. The recorded values were plotted and a phase diagram between the two components was obtained with a characteristic profile of phase diagrams of eutectic mixtures. Mixtures also were investigated by XRPD and compared with the patterns of pure components. […] Aliquots of Cyclobenzaprine HCl API and Mannitol were weighed in the ratios described below and ground in an agate mortar, and the homogeneous mixtures subsequently analyzed. X-ray powder diffraction (XRPD) tests were performed with a ULTIMA IV (Rigaku) instrument, laying the sample on a static sample holder. […] The radiation generated by the Cockcroft-Walton method is constituted by Kα1 (1.540562 Å) and Kα2 (1.544398 Å). The analytical conditions were as follows: Fixed Time: Sampling width, 0.02 deg; Scanning rate, 1.0 s/step […] Sample holder: amorphous glass—equiangular 9200/2G, 0.2 mm deep. […]

[5] = Dissolution test, USP paddle, pyrophosphate buffer pH 4.5; conditions: pH 4.5, free base still present and does not go into solution
Protocol: To test the dissolution properties of the 6 mannitol eutectic, dissolution tests were carried out with a Copley DIS 6000 instrument under the following conditions: Apparatus: USP Paddle RPM: 50 Medium: Pyrophosphate buffer 0.5% pH=4.5±0.05 Additive: Methocel 0.3% Vessel volume: 300 mL Temperature: 37±0.5° C. Sampling time: 1, 2, 5, 10, 20, 30, and 60 min, then each hour until 6 hours. The sampling solutions were diluted 1 to 50 mL and then 1 to 50 mL with medium and submitted to UV analysis with UV ([…]) under the following conditions: λ max: 224 nm Cuvette: […] Blank: medium

[6] = listed as Potassium phosphate bibasic
[7] = listed as Sodium Stearyl fumarate, fumarate

Molecule: O=P([O-])([O-])O.[K+].[K+] [Potassium phosphate dibasic, dipotassium hydrogen phosphate]
Excipient reactions with API, Mixture 1:1 [1]: Acid - base interaction | Excipient reactions with API, Mixture 1:1 [1, 6]: chemical interaction (acid-base); also recorded: chemical (acid-base) interaction | Excipient reactions with API, Mixture in formulation ratio [1]: Low chemical | Excipient reactions with API, Mixture in formulation ratio ([1]; listed as K2HPO4): small interaction | Excipient reactions with API, Mixture in formulation ratio [1, 6]: chemical (acid-base) interaction

Molecule: O=C([O-])CC(O)(CC(=O)[O-])C(=O)[O-].[Na+].[Na+].[Na+] [Tri Sodium Citrate anhydrous, Trisodium citrate anhydrous]
Nature of interaction by FT-IR/ATR ([2]; 1:1 mixture, room temperature, no thermal treatment): no chemical acid-base reaction had occurred | Type of interaction between excipient and API (summary) [2]: only physical

Molecule: Sodium Phosphate dodecahydrate
Interactions between API and excipients, Mixture in formulation (1:1 ratio) [3]: physical interaction

Molecule: CN(C)CCC=C1c2ccccc2C=Cc2ccccc21 [Cyclobenzaprine HCl, 3-(5H-dibenzo[a,d]cyclohepten-5-ylidene)-N,N-dimethyl-1-propanamine]
Cyclobenzaprine dissolution [5]: < 100%

Further lines, with some results ahead:

Type of interaction between excipient and API (summary) [2]: physical interaction
Molecule: OC[C@@H](O)[C@@H](O)[C@H](O)[C@@H](O)CO [Sorbitol]

Type of interaction between excipient and API (summary) [2]: formation of a eutectic
Molecule: OC[C@@H](O)[C@@H](O)[C@H](O)[C@H](O)CO [Mannitol]
Interaction between API and mannitol by XRPD [4]: no adduct formation, only a physical eutectic formation; also recorded: no adduct interaction occurred

Excipient reactions with API, Mixture 1:1 ([1]; fumarate): Physical interaction | Excipient reactions with API, Mixture 1:1 [1, 7]: small physical interaction | Excipient reactions with API, Mixture in formulation ratio ([1]; fumarate): No interaction | Excipient reactions with API, Mixture in formulation ratio [1, 7]: this incompatibility disappears
Molecule: CCCCCCCCCCCCCCCCCCOC(=O)/C=C/C(=O)[O-].[Na+] [Sodium stearyl fumarate]
